# Source: patent US20090042783A1, “APO E ANALOGS AND METHODS FOR THEIR USE” (priority 2004, published 2009)
# Marks after values point to notes of the source that are not given here.
# How the values were obtained:
# [1] = test system: mice infected with C. rodentium; experiment: C. rodentium colitis; format: in vivo; settings: for Inhibition of mortality vs water alone: 1% L-Arg in drinking water; for Colon wt (% Total Body wt) / Histology Score / Body wt (% Total Body wt): 10 days; for Body wt (% Total Body wt): 0.1% BEC or 2.5% DFMO
# Excerpt: C. rodentium colitis: Of the two existing mouse models (Gobert A P et al., 2004; Cheng Y. et al., 2003), the C. rodentium model was selected because it produces a Th1-predominant mucosal inflammation that has histologic changes similar to human IBD (Higgins L M et al., 1999). In this model, mice are infected by oral gavage with C. rodentium (Gobert A P et al., 2004), a gram negative pathogenic bacterium that is the rodent equivalent of enteropathogenic E. coli that causes diarrhea in humans.
# Since arginase I and iNOS were both abundantly expressed in the colitis tissues and L-Arg was completely metabolized, we investigated the effect of administration of 1% L-Arg in the drinking water. In wild type (WT) mice, C. rodentium colitis induced a high level of mortality that began on day 9 post-infection (FIG. 31A). In WT animals treated with L-Arg, mortality was inhibited by 42% and 62% compared to mice receiving water alone, after 12 and 14 days of infection, respectively (FIG. 31A). By Cox regression analysis, WT mice treated with L-Arg had only a 31% hazard of death compared with mice receiving water alone (p<0.0009). In iNOS^−/− mice, no deaths were observed, with or without L-Arg (FIG. 31A). […] Note that the weight loss of WT mice is underestimated, since only the weights of animals still alive could be included. […] There was an additive effect of iNOS deletion and L-Arg administration, with a 68% decrease in colon weight. Neither iNOS deletion nor L-Arg treatment affected colon weight in uninfected control mice. Importantly, these changes were closely paralleled by changes in colon histology (FIG. 32).
# In uninfected control mice, BEC or DFMO had no effect (Table I). […] In fact, experiments had to be terminated early at 10 days post-infection, because of deaths and severe disease at this point.
# mice with DSS colitis = experiment: Dextran sulfate sodium (DSS) colitis; format: in vivo, mouse
# Excerpt: This model was selected because it has become commonly accepted as a mouse model of colitis and is quite practical to employ, since it simply involves adding DSS to the drinking water (Moteau O. et al., 2000, Williams K L et al. 2001, Andres P G et al., 2000, Mahler M. et al., 1998, Tesser T G et al., 1998).
# [2] = test system: C57BL/6J mice with MOG-induced EAE; experiment: MOG-induced experimental autoimmune encephalomyelitis (EAE)
# Method: EAE was induced in mice following the method of Feinstein et al. (Feinstein, Galea, et al. 2002) 1) two s.c. injections, one on each flank of the hind legs with 300 μg MOG35-55 peptide in 0.1 ml PBS emulsified in an equal volume of CFA containing 5 mg/ml of Mycobacterium tuberculosis H37RA (Difco, St. Louis, Mo.) were given on Day 0.2) Pertussis toxin (200 ng per mouse in 0.1 ml PBS) was given i.p. immediately and 48 h after first MOG injection. 3) a booster immunization with an identical emulsion, route of administration and location was given on Day 7.
# Following the encephalitogenic challenge, mice were monitored daily and neurological impairment was evaluated by clinical score (C.S.) as follows: 0, no clinical signs of EAE; 1, limp tail; 2, flaccid tail and abnormal gait (ataxia and/or paresis of hind limbs); 3, severe hind limb paresis; 4, complete paralysis with hind body; and 5, moribund or death.
# Mice were anesthetized, bled, and perfused with 25 ml PBS and 25 ml 4% paraformaldehyde in buffered PBS. Brains and spinal cords were dissected out from 3 mice with a clinical score of 0 and another 3 mice with a clinical score of 4 on day 30 post-immunization. Tissues were post-fixed in 4% paraformaldehyde for another 24 h and then stored in 1×PBS with 0.1% sodium azide. Fixed tissues were embedded in paraffin and 5 μm thick sections were cut from brain, the brain stem and three different levels of spinal cord (cervical, thoracic and lumbar). Sections were stained with hematoxylin/eosin for evidence of inflammation and Luxol fast blue (for demyelination). The severity of inflammation was evaluated using the following criteria: 0, no inflammation; 1, cellular infiltrates only in the perivascular areas and meninges; 2, mild cellular infiltrates only in parenchyma (1-10/section); 3, moderate cellular infiltrates in parenchyma (11-100/section); 4, marked cellular infiltrates in parenchyma (>100 section).
# In total, 10 doses of peptides were given.
# BV2 microglial cells = test system: BV2 microglial cells
# Method: For suppression of inflammation profiling, each peptide analog was tested at a final concentration of 0.1, […], 1, 3, 5, 10 and 25 μM in an LPS induced BV2 microglial cell release of NO and/or TNFα. […] The modification was a biotin label on the apoE peptide (biotin-[…]-amide) which allows detection with ^125I-streptavidin (ISA, Amersham).
# In overview, BV-2 cells are plated in 96 well plates in complete media and then the media is replaced the next day with serum free media or reduced serum (1%) media. […] Each concentration of peptide (standard initial concentrations are 0.1, 0.5, 1, 3, 10 and 25 μM) is added to at least 6 wells of cells (e.g. 6 wells get 0.1 μM peptide, 6 wells get 0.5 μM peptide, etc.) and data are averaged from all 6 wells. […] (2001). Cell viability is also measured with an MTT assay (Laskowitz et al. 2001).
# peritoneal macrophages = experiment: Peritoneal macrophage production of NO, TNFα and IL-6 induced by MOG or LPS/IFN-γ; format: cell-based, mouse
# Method: For this purpose, three mice with clinical scores of 0 and three with clinical scores of 4 at 30 dpi (day post-immunization) were used for preparation of peritoneal macrophage cultures. Macrophages were collected after peritoneal lavage with 3 ml heparin (10 U/ml)-containing PBS and then seeded to 96-well microplates at a density of 1×10^5 cells/well in Dulbecco's MEM containing 10% fetal bovine serum, 2 mM L-glutamine serum, 1% HEPES and 100 U/ml penicillin and 100 μg/ml streptomycin, 37° C. in a humidified incubator with 5% CO2. 24 h later, the serum-containing medium was removed and cells were washed once with serum-free medium. To examine the differentiated response of macrophage to immune stimulators, macrophages obtained from mice with clinical scores of 0 or 4 were exposed to serial concentrations of IFN-γ/LPS or MOG35-55 peptide. […] Media were collected at 45 h or 72 h, and analyzed by ELISA for […] and IL-6 or for nitric oxide (NO) as detailed below.
# As the stable end product of nitric oxide release, nitrite levels in conditioned media were determined by injecting 50 μl media sample into a Sievers 280 NOA analyzer (Boulder, Colo., USA). Total protein (μg/well) was measured using the BCA method (Pierce, Rockford, Ill., USA) according to manufacturer's instructions with BSA as standard. BCA values were measured using a Molecular Devices Thermomax Microplate Reader (Menlo Park, Calif., USA) at OD562. Nitric oxide levels ere expressed as μM NO2—/mg protein.
# For cytokine assays, supernatants were collected 45 h after […]/LPS or MOG treatments and quantitative ELISAs using selected pairs of monoclonal antibodies (as recommended by the manufacturer Biosource) were performed to quantify the cytokines, TNF-α and IL-6. For TNF-α ELISA, 96-well ELISA plates were pre-coated with rabbit anti-mouse polyclonal to TNF-α as capture antibodies for 18 h at 2-8° C. and then blocked for 2 h at room temperature. The wells were incubated with samples or mouse TNF-α standards. Following incubation for 2 h at room temperature, the wells were washed, after which hamster anti-mouse TNF-α biotinylated secondary antibody and horseradish peroxidase conjugate were added. Tetramethylbenzidine (TMB) solution was then added, and peroxidase-catalyzed color change was stopped by acidification with 2 NH2SO4. The plates were scanned at wavelength 450 nm and the absorbance were measured. The results are expressed as the mean concentration (pg/ml) ±SEM.
# For IL-6 ELISA, rat anti-mouse monoclonal to IL-6 was used as capture antibody, and biotinylated rat anti-mouse monoclonal to IL-6 as detection antibody. The rest of procedure is identical to that of TNF-α ELISA.
compound,measurement,setting,value
N=C(N)NCCC[C@H](N)C(=O)O [L-Arg],Inhibition of mortality vs water alone,"[1]; WT mice, 12 days of infection",42%
same,Inhibition of mortality vs water alone,"[1]; WT mice, 14 days of infection",62%
same,Hazard of death compared with water alone (Cox regression),"[1]; WT mice, p<0.0009",31%
same,Decrease in colon weight,[1]; infected WT mice,28%
same,Weight loss,[1]; infected WT mice,reduced weight loss
same,Increase in colonic ODC activity,[1]; infected WT mice treated with L-Arg,40 fold
same,Increase in colonic polyamines,[1]; infected WT mice with L-Arg treatment,2.7±0.2 fold
same,Decrease in colon weight,[1]; infected iNOS−/− mice given L-Arg,68%
same,"IFN-γ, TNF-α and IL-1 mRNA in colitis tissues",[1]; real-time PCR,significant attenuation of these increases
same,Clinical parameters of DSS colitis,mice with DSS colitis; L-Arg (1%),reduction in clinical parameters of colitis
same,Colonic polyamine levels in DSS colitis,"mice with DSS colitis; mouse, in vivo",enhanced polyamine levels
"LLRKRLKRLHSALRVRL (Reverse of COG133) [Reverse Pep., ApoE reverse peptide, scrambled control of COG133]",Clinical severity of EAE,"[2]; 1 mg/kg i.v., 10 doses",did not improve the behavioral symptoms of EAE
same,Incidence,"[2]; 1 mg/kg i.v., 10 doses",10/10
same,Mortality,"[2]; 1 mg/kg i.v., 10 doses",3/10
same,Day of onset,"[2]; 1 mg/kg i.v., 10 doses Day 6-22, mean ± SEM",17.3 ± 1.12
same,Mortality,"[2]; 1 mg/kg i.v., 10 doses, listed as reverse peptide",5 of 15
same,Mean maximum score,"[2]; clinical score 0-5, mean ± SEM",3.9 ± 0.31
same,Suppression of NO and/or TNFα release from LPS treated BV2 cells,BV2 microglial cells,lacked bioactivity
same,"LPS/IFN-γ-induced production of NO, TNFα and IL-6","peritoneal macrophages; COG133 at 1 μM rather than at 5 μM, P<0.05",failed to inhibit this production
same,MOG-induced production of NO and TNFα,"peritoneal macrophages; macrophages from C.S. 4 mice, 72 h after MOG 20 μg/ml",did not display such an inhibitory effect
"N[C@@H](CSCCB(O)O)C(=O)O [BEC, S-(2-boronoethyl)-L-cysteine]",Colon wt (% Total Body wt),"[1]; WT mice, C. rodentium","1.25 ± 0.07^b,d % Total Body wt"
same,Histology Score,"[1]; WT mice, C. rodentium","9.25 ± 0.69^b,d"
same,Body wt (% Total Body wt),"[1]; WT mice, C. rodentium","82.4 ± 5.2^a,c % Total Body wt"
same,Colon wt (% Total Body wt),"[1]; WT mice, PBS (uninfected)",0.42 ± 0.04 % Total Body wt
same,Histology Score,"[1]; WT mice, PBS (uninfected)",0.67 ± 0.17
same,Body wt (% Total Body wt),"[1]; WT mice, PBS (uninfected)",110.1 ± 2.2 % Total Body wt
same,Colon histologic injury score,"[1]; iNOS−/− C. rodentium-infected mice + BEC, n=8, p<0.01",6.44±0.98
same,Colon weight,"[1]; iNOS−/− C. rodentium-infected mice + BEC, p<0.05",0.92±0.20 % of total body weight
same,Effect in uninfected control mice,[1]; in the drinking water,had no effect
same,Survival of C. rodentium-infected mice,[1]; in the drinking water,significant loss of survival
same,Clinical and histologic parameters of DSS colitis,"mice with DSS colitis; WT and iNOS−/− mice, data not shown",exacerbation of clinical and histologic parameters of colitis
